Patent publication US20190361006A1, “METHOD OF PREDICTING CLINICAL OUTCOME OF ANTICANCER AGENTS” (MITRA RXDX, INC., priority 2017, published 2019)

Tests used:
[1] = tested on: gastrointestinal stromal tumor; test: M-score (sensitivity index) from tumor-associated marker assays on tumor tissue culture; type: cell-based, human; details: Patient 1, gastrointestinal stromal tumor
Method: The tumor tissue cultures were also evaluated using standard assays for tumor proliferation, tumor cell death, tumor morphology, and tumor cell viability as previously described, including tetrazolium salt WST-1 viability assay; LDH release; ATP uptake; glucose uptake; Caspase 3, Caspase 8, and Ki67 expression; and H&E staining. The results of the assays for tumor-associated markers were used to generate assessment scores that were input into a machine-trained algorithm to generate a clinical outcome predictor in the form of an “M-score” for each patient.
M-score based on tumor-associated markers was determined for each of the tissue pairs as previously described.
(§1) The M-score based on tumor-associated markers and tumor:stroma ratio of CD56+ cells in tumor tissue cultures under control conditions or under pressure from treatment with anticancer drug regimens was determined as described above for 3 different patients whose clinical outcome in response to the respective treatment was known.

[2] = tested on: gastrointestinal stromal tumor; test: CD56+ NK cell tumor:stroma ratio by IHC in tumor tissue culture; type: cell-based, human; details: Patient 1, gastrointestinal stromal tumor; control ratio 3
Method: The spatial heterogeneity of CD56+ lymphocytes (NK) in areas of tumor vs stroma in pairs of tissues (for control and treatment conditions) from each of a number of patients cultured in the tumor microenvironment platform and treated with various conventional and immuno-modulatory therapies was investigated. IHC analysis for CD56+ cells in slices of tissues under treatment and control conditions was performed, and the number of CD56+ cells in tumor and stromal regions was determined (FIG. 2A). M-score based on tumor-associated markers was determined for each of the tissue pairs as previously described. The ratio of CD56+ cells in areas of tumor cells vs areas of stroma in untreated and drug pressure conditions from the tissue pairs was calculated (FIG. 2B), and the fold change from vehicle to treatment conditions for each pair was determined and binned by M-score >25 and M-score ≤25 (FIG. 2C).
The predictive power of the change in spatial heterogeneity of CD56+NK cells in areas of tumor vs stroma under pressure from treatment with anticancer drug regimens was evaluated. […]

[3] = tested on: gastrointestinal stromal tumor; test: Known clinical outcome of the patient in response to the treatment; type: in vivo, human; details: Patient 1, gastrointestinal stromal tumor
Method: as §1

[4] = tested on: Human lung cancer sections; test: Patient-derived ex-vivo tumor explant culture on tumor microenvironment platform; H&E and IHC for cleaved caspase 3, MICA/B and CD56; type: cell-based; details: cultured 72 hours in tumor microenvironment platform, IHC, FIG. 1
Method: The relevance of changes in the immune contexture of the tumor tissue culture microbed for a non-immunmodulatory agent, either as monotherapy or in combination with an immunomodulatory agent, was examined. Human lung cancer sections from the same patient cultured for 72 hours in the tumor microenvironment platform with gefitinib (a small molecule kinase inhibitor) alone, osimertinib (another small molecule kinase inhibitor)+Pembrolizumab, or vehicle control were assayed for H&E staining and cleaved caspase 3, MICA/B (cell surface ligands that bind immunoreceptors present on natural killer (NK) cells), and CD56 (marker of NK cells) expression.

| Compound | M-score [1] | M-score prediction [1] | Treatment CD56+ tumor:stroma ratio [2] | Clinical response [3] | Cleaved caspase 3 expression ([4]; vs vehicle control) | infiltration of NK cells (CD56) ([4]; vs vehicle-treated) | tumor cell MICA/B expression ([4]; vs vehicle-treated) |
| --- | --- | --- | --- | --- | --- | --- | --- |
| CC[C@@]1(O)C(=O)OCc2c1cc1n(c2=O)Cc2cc3c(CN(C)C)c(O)ccc3nc2-1 [topotecan] | (M-score = 36) | Responder | 5 | Responder |  |  |  |
| COc1cc2ncnc(Nc3ccc(F)c(Cl)c3)c2cc1OCCCN1CCOCC1 [gefitinib] |  |  |  |  | significantly increased | increase | increase |
